System: mutated EGFP (mEGFP) in BY-2 protoplasts
Experiment: meGFP restoration in BY-2 protoplasts by oligonucleotide-mediated targeted gene repair (Example 3)
Format: cell-based, tobacco
Text: A tobacco Bright Yellow 2 cell suspension containing a non-functional EGFP gene was produced by introducing a point mutation in the chromophore region of the protein resulting in the formation of a premature stop codon. This line is used as reporter system to test the influence of various parameters on the repair of the EGFP gene by oligonucleotide-mediated targeted gene repair.
Five mL of a 7 d-old tobacco Bright Yellow 2 (BY-2) cell suspension culture weekly maintained in BY-2 culture medium (Nagata et al. 1999 Method Cell Sci) are transferred to a 50 mL Erlenmeyer flask containing 45 mL of BY-2 culture medium supplemented with 2 mM hydroxyurea. […] Live protoplasts are harvested and their density evaluated using a haemocytometer. […]
Tobacco protoplasts transfection is performed as for tomato protoplasts. […] To culture medium contained (per liter, pH 5.7) 950 mg KNO3, 825 mg NH4NO3, 220 mg CaCl2.2H2O, 185 mg MgSO4.7H2O, 85 mg KH2PO4, 27.85 mg FeSO4.7H2O, 37.25 mg Na2EDTA.2H2O, the micro-nutrients according to Heller's medium (Heller, R. 1953 Ann Sci Nat Bot Biol Veg), vitamins according to Morel and Wetmore's medium (Morel, G. and R. H. Wetmore 1951 Amer. J. Bot.), 2% (w/v) sucrose, 3 mg naphthalene acetic acid, 1 mg 6-benzylaminopurine and a quantity of mannitol to bring the osmolality to 540 mOsm·kg^−1 and transferred to a 35 mm Petri dish. […]

## repairing oligonucleotide: SEQ ID NO 8, T*G*A*A*CAGCTCCTCGCCCTTGC*T*C*A*C, phosphorothioate ends, one mismatch with the targeted sequence (DNA TGAACAGCTCCTCGCCCTTGCTCAC; DNA, linkages s4 o16 s4 (s phosphorothioate, o phosphodiester), methylation of C not given here)
Label = Day 1 / Day 2 treatment, oligonucleotide transfected at Day 2, dichlobenil 2 mg·L^−1 overnight, 2 mM hydroxyurea
  GFP positive protoplasts after 24 hours (/10^6): 0 /10^6
Oligonucleotide transfected at Day 1, nothing at Day 2, 2 mM hydroxyurea
  GFP positive protoplasts after 24 hours (/10^6): 0 /10^6

— patent publication US20130023051A1, “TECHNIQUES FOR TRANSFECTING PROTOPLASTS” (Keygene N.V., priority 2009, published 2013)
